Measurements taken from patent publication US6916915B1, “Stressor regulated genes” (Duke University, priority 1998, dated 2005).

Tested on: C. elegans
Assay: Reverse-Northern dot-blot analysis of steady-state mRNA levels after cadmium exposure
Format: in vivo, Caenorhabditis elegans
Conditions: for Fold-change in mRNA levels following cadmium exposure, DDRT25: clone DDRT25; for Fold-change in mRNA levels following cadmium exposure, DDRT26: clone DDRT26; for Fold-change in mRNA levels following cadmium exposure, DDRT28: clone DDRT28; for Fold-change in mRNA levels following cadmium exposure, DDRT29: clone DDRT29; for Fold-change in mRNA levels following cadmium exposure, DDRT30: clone DDRT30; for Fold-change in mRNA levels following cadmium exposure, DDRT32: clone DDRT32; for Fold-change in mRNA levels following cadmium exposure, DDRT33D: clone DDRT33D; for Fold-change in mRNA levels following cadmium exposure, DDRT33U: clone DDRT33U; for Fold-change in mRNA levels following cadmium exposure, DDRT34: clone DDRT34; for Fold-change in mRNA levels following cadmium exposure, DDRT35: clone DDRT35; for Fold-change in mRNA levels following cadmium exposure, DDRT40: clone DDRT40; for Fold-change in mRNA levels following cadmium exposure, DDRT41: clone DDRT41; for Fold-change in mRNA levels following cadmium exposure, DDRT48: clone DDRT48; for Fold-change in mRNA levels following cadmium exposure, DDRT50: clone DDRT50; for Fold-change in mRNA levels following cadmium exposure, VL9: clone VL9; for Fold-change in mRNA levels following cadmium exposure, VL11: clone VL11; for Fold-change in mRNA levels following cadmium exposure, VL19: clone VL19; for Fold-change in mRNA levels following cadmium exposure, VL20: clone VL20; for Fold-change in mRNA levels following cadmium exposure, VL21: clone VL21
Description: Growth and isolation of C. elegans—The N2 strain of C. elegans was grown in liquid S medium (0.1M NaCl, 50 mM potassium phosphate, pH 6.0, 5 μg/ml cholesterol, 10 mM potassium citrate, 3 mM CaCl2, 3 mM MgCl2, 50 μM EDTA, 25 μM FeSO4, 10 μM MnCl2, 10 μM ZnSO4 and 1 μM CuSO4) using E. coli OP50 as a food source (Brenner, S. (1974) Genetics 77, 71-94). In experiments where nematodes were exposed to cadmium, the medium was supplemented with 100 μM CdCl2 (Freedman, J. H. et al. (1993) J. Biol. Chem. 268, 2554-2564). C. elegans were grown in the presence of metal for 8 h or 24 h at ˜20° C. Nematodes were then collected following centrifugation at 800×g for 5 min. Pellets were suspended in 5 mM NaCl containing 35% sucrose (final concentration) and viable nematodes were collected from the top of the solution following centrifugation at 1000×g for 5 min at 4° C. Nematodes were then washed three times by suspension in M9 buffer (22 mM KH2PO4, 42 mM Na2HPO4, 85 mM NaCl, 1 mM MgSO4) followed by sedimentation at 800×g. Washed nematode pellets were finally suspended in a small volume of M9 buffer, rapidly frozen in liquid nitrogen and stored at −80° C.
RNA isolation—Total RNA was isolated from mix-stage populations of C. elegans exposed to 100 μM CdCl2 for 8 h and 24 h and control, non-exposed nematodes. Frozen worms were first ground into a fine powder using a liquid nitrogen-cooled mortar and pestle. Powdered C. elegans (200 mg) were then homogenized in 2 ml of TRIzol (GIBCO/BRL). RNA was then collected from the aqueous phase following the addition of chloroform, precipitated by adding isopropyl alcohol and then air-dried. The dried RNA pellet was then dissolved in diethyl pyrocarbonate (DEPC)-treated water. For some experiments, poly(A^+) RNA was subsequently isolated using the Poly(A) Tract System following manufacturer's instructions (Promega).
Reverse-Northern dot-blot analysis—Changes in the steady-state levels of differentially expressed mRNAs in C. elegans following cadmium-exposure were also determined by reverse-Northern dot-blot analysis by the modified procedure of Zhang et al. (Cummins, C. et al. (1988) Mol. Cell. Biol 8, 5334-5349). Briefly, differentially expressed cDNAs that were previously cloned into pGEM-T were amplified using primers that anneal to the T7 and SP6 RNA polymerase binding sites, which flank the cDNA insert. cDNAs were amplified and subsequently purified using a PCR-spin column (QIAGEN). Approximately 100 ng of each amplified cDNA were denatured by mixing with 0.1N NaOH (final concentration) and incubating at 100° C. for 5 min. The solution was neutralized following the addition of 3×SSC (final concentration) and then the volume adjusted to 700 μl with dH2O. 200-μl of each sample was applied to one of three Nytran membranes in a Bio-Dot microfiltration apparatus (BioRad). Membranes were then baked for 30 min at 80° C. under vacuum. As positive and loading controls 100 ng of mtl-1 cDNA and myosin light chain DNA were also applied to each membrane, respectively.
Three pools of single-stranded ^32P-labeled cDNA probes were prepared from poly(A^+) RNA isolated from control, 8 h and 24 h cadmium-treated nematodes. cDNAs were generated from a mixture of mRNAs in a 25 μl reverse transcriptase reactions which contained 2 μg poly(A^+) RNA, 1 μg oligo (dT)18 primer, reverse transcriptase buffer, 800 μM DATP, dGTP and dTTP, 4.5 μM dCTP, 100 μCi [α-^32P]dCTP (3000 Ci/mmol), 20 units RNase inhibitor and 200 units Moloney murine leukemia virus reverse transcriptase. The reaction mixture was incubated at 37° C. for 1 h, then at 95° C. for 5 min to terminate the reaction. Unincorporated nucleotides were separated from the labeled cDNAs by using a G-25 spin column (Boehringer Mannheim). Equal amounts (5×10^6 cpm/ml) of each radioactive cDNA mixture were heat-denatured and then hybridized separately to one of the three membranes at 42° C. for 16 h in hybridization buffer. […]

[1] = 8 hours, 100 μM CdCl2, relative to non-exposed, normalized to myosin light chain mRNA
[2] = 24 hours, 100 μM CdCl2, relative to non-exposed, normalized to myosin light chain mRNA

SMILES: [Cl][Cd][Cl] [cadmium, CdCl2]
- Fold-change in mRNA levels following cadmium exposure, DDRT23 (clone DDRT23, 24 hours, 100 μM CdCl2, relative to non-exposed, normalized to myosin light chain mRNA): 3.0 fold
- Fold-change in mRNA levels following cadmium exposure, DDRT25 [1]: 3.9 fold
- Fold-change in mRNA levels following cadmium exposure, DDRT25 [2]: 4.4 fold
- Fold-change in mRNA levels following cadmium exposure, DDRT26 [1]: 4.4 fold
- Fold-change in mRNA levels following cadmium exposure, DDRT26 [2]: 4.7 fold
- Fold-change in mRNA levels following cadmium exposure, DDRT28 [1]: 1.7 fold
- Fold-change in mRNA levels following cadmium exposure, DDRT28 [2]: 1.8 fold
- Fold-change in mRNA levels following cadmium exposure, DDRT29 [1]: 3.9 fold
- Fold-change in mRNA levels following cadmium exposure, DDRT29 [2]: 4.4 fold
- Fold-change in mRNA levels following cadmium exposure, DDRT30 [1]: 2.7 fold
- Fold-change in mRNA levels following cadmium exposure, DDRT30 [2]: 3.1 fold
- Fold-change in mRNA levels following cadmium exposure, DDRT32 [1]: 2.6 fold
- Fold-change in mRNA levels following cadmium exposure, DDRT32 [2]: 2.4 fold
- Fold-change in mRNA levels following cadmium exposure, DDRT33D [1]: 3.1 fold
- Fold-change in mRNA levels following cadmium exposure, DDRT33D [2]: 3.5 fold
- Fold-change in mRNA levels following cadmium exposure, DDRT33U [1]: 3.0 fold
- Fold-change in mRNA levels following cadmium exposure, DDRT33U [2]: 3.5 fold
- Fold-change in mRNA levels following cadmium exposure, DDRT34 [1]: 2.4 fold
- Fold-change in mRNA levels following cadmium exposure, DDRT34 [2]: 3.0 fold
- Fold-change in mRNA levels following cadmium exposure, DDRT35 [1]: 1.6 fold
- Fold-change in mRNA levels following cadmium exposure, DDRT35 [2]: 1.9 fold
- Fold-change in mRNA levels following cadmium exposure, DDRT38 (clone DDRT38, 24 hours, 100 μM CdCl2, relative to non-exposed, normalized to myosin light chain mRNA): 1.8 fold
- Fold-change in mRNA levels following cadmium exposure, DDRT40 [1]: 1.9 fold
- Fold-change in mRNA levels following cadmium exposure, DDRT40 [2]: 2.3 fold
- Fold-change in mRNA levels following cadmium exposure, DDRT41 [1]: 2.2 fold
- Fold-change in mRNA levels following cadmium exposure, DDRT41 [2]: 2.1 fold
- Fold-change in mRNA levels following cadmium exposure, DDRT48 [1]: 2.1 fold
- Fold-change in mRNA levels following cadmium exposure, DDRT48 [2]: 2.6 fold
- Fold-change in mRNA levels following cadmium exposure, DDRT50 [1]: 2.2 fold
- Fold-change in mRNA levels following cadmium exposure, DDRT50 [2]: 2.2 fold
- Fold-change in mRNA levels following cadmium exposure, VL3 (clone VL3, 24 hours, 100 μM CdCl2, relative to non-exposed, normalized to myosin light chain mRNA): 2.4 fold
- Fold-change in mRNA levels following cadmium exposure, VL9 [1]: −1.7 fold
- Fold-change in mRNA levels following cadmium exposure, VL9 [2]: −2.3 fold
- Fold-change in mRNA levels following cadmium exposure, VL11 [1]: 3.2 fold
- Fold-change in mRNA levels following cadmium exposure, VL11 [2]: 6.1 fold
- Fold-change in mRNA levels following cadmium exposure, VL12 (clone VL12 (mtl-1), 24 hours, 100 μM CdCl2, relative to non-exposed, normalized to myosin light chain mRNA): 5.2 fold
- Fold-change in mRNA levels following cadmium exposure, VL19 [1]: 3.6 fold
- Fold-change in mRNA levels following cadmium exposure, VL19 [2]: 5.0 fold
- Fold-change in mRNA levels following cadmium exposure, VL20 [1]: 2.8 fold
- Fold-change in mRNA levels following cadmium exposure, VL20 [2]: 5.0 fold
- Fold-change in mRNA levels following cadmium exposure, VL21 [1]: 2.2 fold
- Fold-change in mRNA levels following cadmium exposure, VL21 [2]: 2.5 fold
- decrease in level of expression, a single clone (following cadmium exposure): ~2 fold
- increase in steady-state level of expression, forty-eight of the clones (following cadmium exposure): 2-6 fold
- decrease in level of expression for VL9 (in response to cadmium, time not stated): ~2 fold
